Assays:
[1] = test system: challenge organisms (fungi, Gram negative and Gram positive bacteria); test: Microbial challenge testing (Example 1), statements over all challenge organisms; type: cell-based; conditions: Table 6 experiments; glycol 0.5 to 2.5 wt %, BIT 0.05 and 0.2 wt %; from grade codes
Procedure: The microorganisms used in challenge tests are given in Table 3, designated as either ATCC (American Type Culture Collection) or wild type. These wild type organisms were problematic organisms previously isolated from chemical products. In the description for each organism, the bacteria are indicated as either GN (Gram negative) or GP (Gram positive). […] Sample substrates were prepared in triplicate, except those substrates containing PE or CG which were prepared in duplicate. […] After mixing, all challenged substrates were incubated at 35° C.±2° C. for 14 days and then at ambient room temperature. […] The turbidity of the sample was determined and, if needed, the sample was diluted with phosphate buffer (pH 7.2) to produce readable plate counts (see “Plate Counts” below). […] For diluted samples, plates producing 22 to 220 colonies per plate were counted and the count was multiplied by the dilution factor. […] Possible synergies were determined by treating the grade code as an estimate of the log of the microbial count (log of cfu/mL). […] Synergies were determined in the same way as described above for Table 5. […] As mentioned previously, synergies (as indicated in Tables 5 and 6) were determined by treating the grade codes as the logarithm (log) of the organism counts (cfu/ml), then adding log reductions for the individual components and comparing to the log reduction for the mixture. […]

[2] = test system: Corynebacterium xerosis ATCC #373; test: Synergy testing in brain heart infusion media, 96-well plates; type: cell-based; conditions: for % CHDM: relative to CHDM alone; for SI: synergy index
Procedure: MICs were determined using a high-throughput microplate method. Individual antimicrobial agents were added to TSB (pH 7.3) for bacterial testing or SDB (pH 5.6) for fungal testing at the highest concentration to be tested. A serial dilution series was prepared at a dilution ratio of 1:1.3333 such that a one log range was covered in nine dilutions. Two-hundred microliters of the diluted antimicrobial agents were dispensed into four wells each of a sterile, 96-well, flat-bottom microplate (Nalge Nunc International). Four additional wells of the highest concentration were dispensed to serve as uninoculated high-level controls. Eight additional wells containing only broth medium were also prepared, four to serve as negative controls and four as positive controls. Three wells of each antimicrobial agent dilution were inoculated with one of the test strains in Table 7. The final well of each antimicrobial agent dilution was left uninoculated to serve as a control (and means of compensating) for any absorbance/turbidity due to the test compounds.
The individual antimicrobial agents listed in Table 8 were tested in combination with CHDM. The MIC values determined in the individual antimicrobial agent testing described above were used to establish a target MIC. In each experiment, MIC values for the individual antimicrobial agents and CHDM were determined in order to eliminate any variability due to comparison of data from different dates. Testing was done over a range of four concentrations separated by a factor of 1.3333 as described above. The four concentrations were the target MIC plus one dilution level higher and two dilution levels lower than the target. Combinations of antimicrobial agents and CHDM were made at 50% of the target MIC values and the higher and lower individual levels. Additionally, 50% level series were also tested with the antimicrobial agent or CHDM at one dilution level lower than the target level. The method of Kull et. al. (F. C. Kull et al., Applied Microbiology, 9, p 538-541 (1961)) was used to determine whether there was synergistic activity between CHDM and each antimicrobial agent for inhibition of each of the five microbes. MICs for the individually-tested CHDM and antimicrobial agent, as well as the concentration of CHDM and antimicrobial agent in the combination MIC were used to calculate a synergy index (SI) according to the equation: […]
where Qa and Qb are the minimum inhibitory concentrations for CHDM and a antimicrobial agent, respectively, when tested independently, and QA and QB are the concentrations of CHDM and a antimicrobial agent, respectively, in combination at an inhibitory concentration. Accordingly, synergy is defined as a SI less than one.
Experiments were also conducted using Corynebacterium xerosis, which is a bacterium known to cause body odor. […] The Corynebacterium xerosis bacterium used in this example was ATCC #373. The seed culture was grown in brain heart infusion medium. Assays were performed in brain heart infusion media in 96-well plates as described in Example 2. The brain heart infusion medium was at a pH of about 7.4. All growth was conducted at 37° C.

| SMILES | Synergism of cycloaliphatic diol with BIT (in words) [1] | % CHDM ([2]; Day 2, CHDM with EHG) | % CHDM ([2]; Day 2, CHDM with TRI) | QA/a (CHDM) ([2]; Day 2, inhibitory concentration of CHDM alone or in combination with EHG, plate EX194-195-EHG-Syn1) | QA/a (CHDM) ([2]; Day 2, inhibitory concentration of CHDM alone or in combination with TRI, plate EX194-195-TRI-Syn1) | SI ([2]; Day 2, CHDM with EHG) | SI ([2]; Day 2, CHDM with TRI) | % CHDM ([2]; Day 3, CHDM with EHG) | % CHDM ([2]; Day 3, CHDM with TRI) | QA/a (CHDM) ([2]; Day 3, inhibitory concentration of CHDM alone or in combination with EHG, plate EX194-195-EHG-Syn1) | QA/a (CHDM) ([2]; Day 3, inhibitory concentration of CHDM alone or in combination with TRI, plate EX194-195-TRI-Syn1) | SI ([2]; Day 3, CHDM with EHG) | SI ([2]; Day 3, CHDM with TRI) |
| --- | --- | --- | --- | --- | --- | --- | --- | --- | --- | --- | --- | --- | --- |
| CC1(C)C(O)C(C)(C)C1O (centres unmarked) [TMCD, 2,2,4,4-tetramethyl-1,3-cyclobutanediol] | significant enhancement to the antimicrobial activity of BIT | – | – | – | – | – | – | – | – | – | – | – | – |
| OCC1CCC(CO)CC1 (centres unmarked) [1,4-CHDM, 1,4-cyclohexanedimethanol] | significant enhancement to the antimicrobial activity of BIT | 100.0% | 100.0% | 2.110 | 2.110 | 1.00 | 1.00 | 100.0% | 100.0% | 2.110 | 2.110 | 1.00 | 1.00 |
